Test results reported in patent US20090131309A1, “ICA512 COUPLES INSULIN SECRETION AND GENE EXPRESSION IN BETA-CELLS” (Technische Universität Dresden Medizinizche Fakultät Carl …, priority 2004, published 2009).

Experiments:
Type in all cases: cell-based, rat
[1] = test system: ICA512-TMF; assay: Stimulus-induced cleavage of ICA512-TMF in INS-1 cells (western blot)
Protocol: Cell extracts and western blotting. Wild type and transfected INS-1 cells and rat pancreatic islets (350-450) were pre-incubated for 60 minutes in resting buffer containing 0 mM glucose and 5 mM KCl and then incubated for various times in fresh resting or stimulating buffer including 25 mM glucose and 55 mM KCl, as previously described (7). […] Next, the cells were washed with ice cold PBS, and extracted in lysis buffer (10 mM Tris-HCl at pH 8.0, 140 mM NaCl, 1% Triton X-100, 1 mM EDTA, 1 mM PMSF, and 1% protease inhibitor cocktail (Sigma, St. Louis, Mo.) at 4° C. Cytosolic and nuclear extracts were prepared using the NE-PER Nuclear and Cytoplasmic Extraction Reagents (Pierce, Rockford, Ill.) in accordance with the manufacturer's instructions. Protein concentration was measured using the Bio-Rad Protein Assay Reagent (Bio-Rad, Hercules, Calif.). Equivalent amount of protein was separated by 8-10% SDS-PAGE, except for nuclear extracts, in which case half of the protein were loaded compared to the corresponding cytosolic extracts. After protein transferring, nitrocellulose filters were incubated with the following antibodies: mouse monoclonal anti-ICA512 (6), anti-μ-calpain (Chemicon, Temecula, Calif.), anti-γ-tubulin and anti-HA (Sigma), anti-GFP (Clontech); rabbit polyclonals anti-Glut2 (Alpha Diagnostics International, St Antonio, Tex.), anti-CPE (Chemicon), anti-GFP (Molecular Probes, Eugene, Oreg.) and anti-HA (kind gift of Christoph Thiele). Chemiluminescence was developed using the Supersignal West Pico Substrate (Pierce) as substrate and detected with a LAS 3000 Bioimaging System (Fuji, Tokyo, Japan). Quantitation of protein signals was performed with the Image Gauge v3.45 software (Fuji).

[2] = test system: pro-ICA512; assay: Immunoblot for pro-ICA512 and ICA512-TMF in INS-1 cells; details: 60 μM Calpeptin
Protocol: Culture of INS-1 cells. INS-1 cells were grown as described^27. In some instances cells were pre-incubated for 1 hour in resting buffer (0 mM glucose, 5 mM KCl) and then for 2 or 6 hours in resting or stimulating (25 mM glucose, 55 mM KCl) buffers as described^7. Calpeptin (Calbiochem) was added in the last 15 minutes of the pre-incubation, and then for the entire following period before cells were harvested. Cells were stimulated with 20 nM human growth hormone (hGH) for 20 minutes following 18 hours incubation in low serum medium (LSM) containing RPMI-1640, 11 mM glucose, 0.5% FBS 25 mM HEPES, 1% penicillin-streptomycin and 0.05 mM β-mercaptoethanol. After washing, cells were either harvested or incubated in LSM for 6 additional hours. For immunoprecipitation cells were collected 1 hour after stimulation with hGH.
Cell extracts and western blotting. INS-1 cells and pancreatic islets were harvested at 4° C. in RIPA buffer [50 mM Tris-HCl at pH 8.0, 150 mM NaCl, 1% NP-40, 0.1% SDS, 0.5% sodium deoxycholate, and 1× protease inhibitor cocktail (Sigma)] to obtain total extracts. Insoluble material was removed by centrifugation. Cytosolic and nuclear extracts were prepared using the NE-PER Nuclear and Cytoplasmic Extraction Reagents (Pierce). Proteins were separated by 8-10% SDS-PAGE and immunoblotted with the following antibodies: mouse monoclonals anti-ICA512^7, anti-STAT5 (Santa Cruz), anti-γ-tubulin and anti-HA (Sigma); rabbit anti-PY-STAT5 and anti-STAT3 (Cell Signaling); affinity purified goat anti-GFP IgGs. Chemiluminescence was developed using the Supersignal West Pico or Femto kits (Pierce) and detected with a LAS 3000 Bioimaging System (Fuji). Protein signals were quantified with the Image Gauge v3.45 software (Fuji). Half the amount of nuclear extract proteins were immunoblotted relative to total and cytosolic extract proteins.

[3] = test system: INS-1 cells; assay: Nuclear levels of ICA512-CCF-GFP in INS-1 cells (nuclear extracts, confocal imaging); details: ICA512-GFP INS-1 cells; 60 μM calpeptin
Protocol: Cell extracts and western blotting. Wild type and transfected INS-1 cells and rat pancreatic islets (350-450) were pre-incubated for 60 minutes in resting buffer containing 0 mM glucose and 5 mM KCl and then incubated for various times in fresh resting or stimulating buffer including 25 mM glucose and 55 mM KCl, as previously described (7). The protease inhibitors calpeptin, MG-132, L-685,458 (Calbiochem, La Jolla, Calif.) were added in the last 15 minutes of the pre-incubation, and then for the entire following period before cells were harvested. Next, the cells were washed with ice cold PBS, and extracted in lysis buffer (10 mM Tris-HCl at pH 8.0, 140 mM NaCl, 1% Triton X-100, 1 mM EDTA, 1 mM PMSF, and 1% protease inhibitor cocktail (Sigma, St. Louis, Mo.) at 4° C. Cytosolic and nuclear extracts were prepared using the NE-PER Nuclear and Cytoplasmic Extraction Reagents (Pierce, Rockford, Ill.) in accordance with the manufacturer's instructions. Protein concentration was measured using the Bio-Rad Protein Assay Reagent (Bio-Rad, Hercules, Calif.). Equivalent amount of protein was separated by 8-10% SDS-PAGE, except for nuclear extracts, in which case half of the protein were loaded compared to the corresponding cytosolic extracts. […] Quantitation of protein signals was performed with the Image Gauge v3.45 software (Fuji). […]

For `CCCC[C@@H](C=O)NC(=O)[C@H](CC(C)C)NC(=O)OCc1ccccc1` [calpeptin], the “Ca2+-dependent cleavage of ICA512-TMF cytoplasmic domain upon stimulation” value ([1]; INS-1 cells, stimulating buffer (25 mM glucose, 55 mM KCl) 105 min, western blot) was “prevented in a dose-dependent manner”, the “stimulation induced proteolysis of ICA512-TMF-GFP” value ([1]; cytosolic extracts of ICA512-GFP INS-1 cells, 60 μM calpeptin) was “calpeptin-sensitive proteolysis of ICA512-TMF-GFP” and the “increased proteolysis of ICA512-TMF in dynamin 1 (K44A)-GFP cells” value ([1]; stimulated INS-1 cells expressing dynamin 1 (K44A)-GFP) was “inhibited by calpeptin in a dose-dependent fashion”. For the same molecule, the “rapid induction of pro-ICA512” value ([2]; cells stimulated for 2 hours) was “did not prevent the rapid induction of pro-ICA512”, the “greater induction of pro-ICA512 and decrease of ICA512-TMF” value ([2]; cells stimulated for 6 hours) was “partially inhibited” and the “enrichment of 55 kD ICA512-CCF-GFP in nuclear fractions of stimulated cells” value [3] was “in a calpeptin-sensitive manner”.
